# Data reported in PubChem BioAssay (NCI).
#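 Method: 48-hour compound exposure of cells in 96-well plates, five concentrations, linear interpolation of endpoints. GI50 = concentration required for 50% inhibition of growth. TGI: total growth inhibition.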
# How the values were obtained:
# Assay in all cases: growth of human tumour cells (NCI), 48 h
# 786-0 renal = tested on: 786-0 renal
# A498 renal = tested on: A498 renal
# A549 NSCLC = tested on: A549 NSCLC
# ACHN renal = tested on: ACHN renal
# BT-549 breast = tested on: BT-549 breast
# CAKI-1 renal = tested on: CAKI-1 renal
# CCRF-CEM leukemia = tested on: CCRF-CEM leukemia
# COLO 205 colon = tested on: COLO 205 colon
# DU-145 prostate = tested on: DU-145 prostate
# EKVX NSCLC = tested on: EKVX NSCLC
# HCC-2998 colon = tested on: HCC-2998 colon
# HCT-116 colon = tested on: HCT-116 colon
# HCT-15 colon = tested on: HCT-15 colon
# HL-60(TB) leukemia = tested on: HL-60(TB) leukemia
# HOP-62 NSCLC = tested on: HOP-62 NSCLC
# HOP-92 NSCLC = tested on: HOP-92 NSCLC
# HS 578T breast = tested on: HS 578T breast
# HT29 colon = tested on: HT29 colon
# IGROV1 ovarian = tested on: IGROV1 ovarian
# K-562 leukemia = tested on: K-562 leukemia
# KM12 colon = tested on: KM12 colon
# LOX IMVI melanoma = tested on: LOX IMVI melanoma
# M14 melanoma = tested on: M14 melanoma
# MALME-3M melanoma = tested on: MALME-3M melanoma
# MCF7 breast = tested on: MCF7 breast
# MDA-MB-231 breast = tested on: MDA-MB-231 breast
# MDA-MB-435 = tested on: MDA-MB-435
# MOLT-4 leukemia = tested on: MOLT-4 leukemia
# NCI-H226 lung = tested on: NCI-H226 lung
# NCI-H23 lung = tested on: NCI-H23 lung
# NCI-H460 lung = tested on: NCI-H460 lung
# NCI-H522 lung = tested on: NCI-H522 lung
# NCI/ADR-RES ovarian = tested on: NCI/ADR-RES ovarian
# OVCAR-3 ovarian = tested on: OVCAR-3 ovarian
# OVCAR-4 ovarian = tested on: OVCAR-4 ovarian
# OVCAR-5 ovarian = tested on: OVCAR-5 ovarian
# OVCAR-8 ovarian = tested on: OVCAR-8 ovarian
# PC-3 prostate = tested on: PC-3 prostate
# RPMI-8226 leukemia = tested on: RPMI-8226 leukemia
# RXF 393 renal = tested on: RXF 393 renal
# SF-268 CNS = tested on: SF-268 CNS
# SF-295 CNS = tested on: SF-295 CNS
# SF-539 CNS = tested on: SF-539 CNS
# SK-MEL-2 melanoma = tested on: SK-MEL-2 melanoma
# SK-MEL-28 melanoma = tested on: SK-MEL-28 melanoma
# SK-MEL-5 melanoma = tested on: SK-MEL-5 melanoma
# SK-OV-3 ovarian = tested on: SK-OV-3 ovarian
# SN12C renal = tested on: SN12C renal
# SNB-19 CNS = tested on: SNB-19 CNS
# SNB-75 CNS = tested on: SNB-75 CNS
# SR leukemia = tested on: SR leukemia
# SW-620 colon = tested on: SW-620 colon
# T-47D breast = tested on: T-47D breast
# TK-10 renal = tested on: TK-10 renal
# U251 CNS = tested on: U251 CNS
# UACC-257 melanoma = tested on: UACC-257 melanoma
# UACC-62 melanoma = tested on: UACC-62 melanoma
# UO-31 renal = tested on: UO-31 renal
smiles,measurement,setting,value
CCc1nn2c(C)cc(C)nc2c1Cc1ccc(/C=C/CN2CCN(CCOCCOCCN3CCN(C/C=C/c4ccc(Cc5c(CC)nn6c(C)cc(C)nc56)cc4)CC3)CC2)cc1,GI50,786-0 renal,1.72 µM
same,TGI,786-0 renal,3.28 µM
same,GI50,A498 renal,5.15 µM
same,TGI,A498 renal,9.66 µM
same,GI50,A549 NSCLC,4.25 µM
same,TGI,A549 NSCLC,8.78 µM
same,GI50,ACHN renal,2.25 µM
same,TGI,ACHN renal,5.2 µM
same,GI50,BT-549 breast,4.98 µM
same,TGI,BT-549 breast,9.52 µM
same,GI50,CAKI-1 renal,1.59 µM
same,TGI,CAKI-1 renal,3.35 µM
same,GI50,CCRF-CEM leukemia,1.64 µM
same,TGI,CCRF-CEM leukemia,4.18 µM
same,GI50,COLO 205 colon,1.71 µM
same,TGI,COLO 205 colon,3.22 µM
same,GI50,DU-145 prostate,2.88 µM
same,TGI,DU-145 prostate,7.21 µM
same,GI50,EKVX NSCLC,4.26 µM
same,TGI,EKVX NSCLC,8.84 µM
same,GI50,HCC-2998 colon,1.77 µM
same,TGI,HCC-2998 colon,3.48 µM
same,GI50,HCT-116 colon,1.63 µM
same,TGI,HCT-116 colon,3.16 µM
same,GI50,HCT-15 colon,1.69 µM
same,TGI,HCT-15 colon,3.4 µM
same,GI50,HL-60(TB) leukemia,1.78 µM
same,TGI,HL-60(TB) leukemia,3.74 µM
same,GI50,HOP-62 NSCLC,4.63 µM
same,TGI,HOP-62 NSCLC,9.44 µM
same,GI50,HOP-92 NSCLC,2.37 µM
same,TGI,HOP-92 NSCLC,7.16 µM
same,GI50,HS 578T breast,5.14 µM
same,TGI,HS 578T breast,12.1 µM
same,GI50,HT29 colon,1.66 µM
same,TGI,HT29 colon,3.26 µM
same,GI50,IGROV1 ovarian,2.8 µM
same,TGI,IGROV1 ovarian,7.64 µM
same,GI50,K-562 leukemia,1.79 µM
same,TGI,K-562 leukemia,4.41 µM
same,GI50,KM12 colon,3.28 µM
same,TGI,KM12 colon,7.96 µM
same,GI50,LOX IMVI melanoma,1.68 µM
same,TGI,LOX IMVI melanoma,3.16 µM
same,GI50,M14 melanoma,1.76 µM
same,TGI,M14 melanoma,3.37 µM
same,GI50,MALME-3M melanoma,1.73 µM
same,TGI,MALME-3M melanoma,3.23 µM
same,GI50,MCF7 breast,1.7 µM
same,TGI,MCF7 breast,3.35 µM
same,GI50,MDA-MB-231 breast,1.91 µM
same,TGI,MDA-MB-231 breast,4.13 µM
same,GI50,MDA-MB-435,1.75 µM
same,TGI,MDA-MB-435,3.26 µM
same,GI50,MOLT-4 leukemia,2.16 µM
same,TGI,MOLT-4 leukemia,5.13 µM
same,GI50,NCI-H226 lung,5.09 µM
same,TGI,NCI-H226 lung,10.9 µM
same,GI50,NCI-H23 lung,1.86 µM
same,TGI,NCI-H23 lung,3.65 µM
same,GI50,NCI-H460 lung,1.88 µM
same,TGI,NCI-H460 lung,3.53 µM
same,GI50,NCI-H522 lung,1.7 µM
same,TGI,NCI-H522 lung,3.39 µM
same,GI50,NCI/ADR-RES ovarian,2.74 µM
same,TGI,NCI/ADR-RES ovarian,7.88 µM
same,GI50,OVCAR-3 ovarian,2.58 µM
same,TGI,OVCAR-3 ovarian,7.12 µM
same,GI50,OVCAR-4 ovarian,1.8 µM
same,TGI,OVCAR-4 ovarian,3.86 µM
same,GI50,OVCAR-5 ovarian,4.8 µM
same,TGI,OVCAR-5 ovarian,9.34 µM
same,GI50,OVCAR-8 ovarian,1.92 µM
same,TGI,OVCAR-8 ovarian,3.92 µM
same,GI50,PC-3 prostate,2.81 µM
same,TGI,PC-3 prostate,7.76 µM
same,GI50,RPMI-8226 leukemia,1.87 µM
same,TGI,RPMI-8226 leukemia,4.33 µM
same,GI50,RXF 393 renal,1.68 µM
same,TGI,RXF 393 renal,3.97 µM
same,GI50,SF-268 CNS,2.94 µM
same,TGI,SF-268 CNS,8.26 µM
same,GI50,SF-295 CNS,2.95 µM
same,TGI,SF-295 CNS,7.6 µM
same,GI50,SF-539 CNS,1.72 µM
same,TGI,SF-539 CNS,3.19 µM
same,GI50,SK-MEL-2 melanoma,5.35 µM
same,TGI,SK-MEL-2 melanoma,9.95 µM
same,GI50,SK-MEL-28 melanoma,1.75 µM
same,TGI,SK-MEL-28 melanoma,3.2 µM
same,GI50,SK-MEL-5 melanoma,1.87 µM
same,TGI,SK-MEL-5 melanoma,3.52 µM
same,GI50,SK-OV-3 ovarian,5.75 µM
same,TGI,SK-OV-3 ovarian,10.5 µM
same,GI50,SN12C renal,1.86 µM
same,TGI,SN12C renal,3.99 µM
same,GI50,SNB-19 CNS,2.94 µM
same,TGI,SNB-19 CNS,7.95 µM
same,GI50,SNB-75 CNS,4.09 µM
same,TGI,SNB-75 CNS,8.18 µM
same,GI50,SR leukemia,1.81 µM
same,TGI,SR leukemia,4.6 µM
same,GI50,SW-620 colon,1.7 µM
same,TGI,SW-620 colon,3.31 µM
same,GI50,T-47D breast,1.74 µM
same,TGI,T-47D breast,3.74 µM
same,GI50,TK-10 renal,5.72 µM
same,TGI,TK-10 renal,10.4 µM
same,GI50,U251 CNS,1.85 µM
same,TGI,U251 CNS,3.76 µM
same,GI50,UACC-257 melanoma,1.74 µM
same,TGI,UACC-257 melanoma,3.4 µM
same,GI50,UACC-62 melanoma,1.74 µM
same,TGI,UACC-62 melanoma,3.3 µM
same,GI50,UO-31 renal,1.42 µM
same,TGI,UO-31 renal,3.05 µM
